Source: patent US7153873B2, “Salts of bicyclic, N-acylated imidazo-3-amines and imidazo-5-amines” (Gruenenthal GmbH, priority 2000, dated 2006)

Molecular target: T1, μ-opiate receptor (Rattus norvegicus, UniProt P33535)
T1 construct: homogenate of rat brain without cerebellum, pons and medulla oblongata of male Wistar rats; from tissue; host or cells: rat brain (without cerebellum, pons and medulla oblongata), male Wistar rats, membrane homogenate
Test: μ-Opiate receptor binding investigations on rat brain membrane homogenates with tritiated naloxone
Conditions: 10 μM compound; rat brain membrane homogenate (male Wistar rats); 1 nmol/l tritiated naloxone as radioactive ligand; read-out: μ-affinity % inhibition 10 μM
Description: μ-Opiate Receptor Binding Investigations
Investigations to determine the affinity of the compounds of Formula I according to the invention for the μ-opiate receptor were carried out on brain membrane homogenates (homogenate of rat brain without cerebellum, pons and medulla oblongata of male Wistar rats).
For this purpose, the respective freshly prepared rat brain was homogenized in 50 mmol/l tris-HCl (pH 7.4) with ice cooling and was centrifuged for 10 minutes at 5,000 g and 4° C. After decanting and rejection of the supernatant, retrieval and homogenisation of the membrane sediment in 50 mmol/l tris-HCl (pH 7.4), the homogenate was then centrifuged for 20 minutes at 20,000 g and 4° C. This washing stage was repeated several times. The supernatant was then decanted and the membrane sediment homogenized in cold 50 mmol/l tris-HCl, 20% glycerol (w/v), 0.01% Bactitracin (w/v) (pH 7.4) and frozen in aliquots until testing. To test receptor binding, the aliquots were thawed and diluted 1:10 with the binding test buffer.
In the binding test, a 50 mmol/l tris-HCl, 5 mmol/l MgCl (pH 7.4) was used as buffer and 1 nmol/l tritiated naloxone as radioactive ligand.

T1 sequence (P33535 whole entry): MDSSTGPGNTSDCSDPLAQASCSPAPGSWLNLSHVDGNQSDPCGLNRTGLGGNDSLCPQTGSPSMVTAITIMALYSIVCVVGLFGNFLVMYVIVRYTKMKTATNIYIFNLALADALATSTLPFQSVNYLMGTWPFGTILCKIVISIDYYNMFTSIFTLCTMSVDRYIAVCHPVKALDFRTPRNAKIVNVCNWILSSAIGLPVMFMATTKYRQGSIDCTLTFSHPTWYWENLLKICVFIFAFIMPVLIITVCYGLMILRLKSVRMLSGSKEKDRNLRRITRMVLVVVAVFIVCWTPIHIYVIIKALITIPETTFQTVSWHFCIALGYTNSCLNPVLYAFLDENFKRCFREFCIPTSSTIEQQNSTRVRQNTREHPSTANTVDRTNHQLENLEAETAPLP

SMILES | inhibition at 10 µM [%]
CC(=O)[n+]1c(C)c(NC2CCCCC2)n2cccc(OCc3ccccc3)c21 [Example 7, 1-acetyl-8-benzyloxy-3-cyclohexylamino-2-methyl-imidazo[1,2-a]pyridin-1-ium chloride] | 91
CC(=O)[n+]1c(-c2ccccc2)c(NC2CCCCC2)n2cccnc21 [Example 6, 1-acetyl-3-cyclohexylamino-2-phenyl-imidazo[1,2-a]-pyrimidin-1-ium chloride] | 53
CC(=O)[n+]1c(C)c(NC(C)(C)C)n2cccc(OCc3ccccc3)c21 [Example 8, 1-acetyl-8-benzyloxy-3-tert-butylamino-2-methyl-imidazo[1,2-a]pyridin-1-ium chloride] | 98
CC(=O)[n+]1c(-c2ccccc2)c(NC2CCCCC2)n2c3ccccc3ccc21 [Example 5, 3-acetyl-1-cyclohexylamino-2-phenyl-imidazo[1,2-a]-quinolin-3-ium chloride] | 79
CC(=O)[n+]1c(-c2ccccc2)c(NC(C)(C)C)n2ccsc21 [Example 4, 7-acetyl-5-tert-butylamino-6-phenyl-imidazo[2,1-b]-thiazol-7-ium chloride] | 90
